Data from patent publication US20180303809A1, “TREATMENT OF BURN PAIN BY TRPV1 MODULATORS” (Purdue Pharma L.P., priority 2013, published 2018).
“And” between values parts separate entries of the source, which are not always exact repeats. Identical values can stand only once.

Tests used:
Type in all cases: in vivo, rat
[1] = system: male Sprague-Dawley rats; assay: Paw pressure assay, mechanical hyperalgesia (PWT) in thermal burn pain model; details: rat burn injury 55° C. 24 s, 30 mg/kg PO
Procedure: (§1) Test Animals: Each experiment used male Sprague-Dawley rats weighing between 190-260 g at the time of thermal burn injury. The rats were housed two per cage, and were allowed to acclimate to their environment for at least six days before testing began. The rats had free access to food and water at all times, except during testing and prior to oral (PO) administration of a test compound, when food was removed about 16 hours before dosing. The rats were divided into treatment groups, and one of the following compounds was administered to each group at the dose and by the route of administration indicated in Tables 5.2A to 5.2C, 5.3A and 5.3B, and 5.4A and 5.4B: ketorolac (Sigma-Aldrich, St. Louis, Mo.), AMG 517 (selective TRPV1 antagonist described in Em. Doherty et al., “Novel vanilloid receptor-1 antagonists:2. Structure-activity relationships of 4-oxopyrimidines leading to the selection of a clinical candidate,” J Med Chem 50:3515-3527 (2007).) (Purdue Pharma L. P., Cranbury, N.J.), indomethacin (Alexis Biochemicals, Farmingdale, N.Y.), gabapentin (Bosche Scientific, New Brunswick, N.J.), or (S)-3-chloro-5-(1,2-dihydroxyethyl)-N-(5-(trifluoromethyl)pyridin-2-yl)-5′,6′-dihydro-[2,4′-bipyridine]-1′(2′H)-carboxamide (Compound 1). The control groups were administered the vehicle for the compound of formula (I). The volume of administration for PO treatment was 5 ml/kg, and was the same for all treatment groups. Volume of administration for intraperitoneal (i.p.) drug administration was 2 ml/kg.
(§2) To assess the actions of a compound of formula (I) for the treatment or prevention of burn pain, a model of thermal burn pain was used. A thermal burn injury was induced under isofluorane/O2 inhalation anesthesia. To assess mechanical hyperalgesia and weight bearing, a thermal injury was produced by immersing the left hind paw into water maintained at 55° C. for 24 seconds. The left hind paw of non-injured control animals was immersed in 22° C. water for 24 seconds. To assess thermal hyperalgesia, a thermal injury was produced by immersing the left hindpaw into water maintained at 50° C. for 48 seconds; the left hind-paw of non-injured control animals was immersed in 22° C. water for 48 seconds. The animals were assessed for response to noxious mechanical stimuli by determining PWT for mechanical hyperalgesia, weight bearing difference between the injured or non-injured side, or response to noxious thermal stimuli by determining PWL for thermal hyperalgesia, all as described below, prior to drug administration (baseline), then again at 1, 3 and 5 hours after induction of burn injury.
The paw pressure assay was used to assess mechanical hyperalgesia. For this assay, hind paw withdrawal thresholds (PWT) to a noxious mechanical stimulus were determined using an analgesimeter (Model 7200, commercially available from Ugo Basile of Italy) as described in C. Stein, “Unilateral Inflammation of the Hindpaw in Rats as a Model of Prolonged Noxious Stimulation: Alterations in Behavior and Nociceptive Thresholds,” Pharmacol. Biochem. and Behavior 31:451-455 (1988). The rat's paw was placed on a small platform, and weight was applied in a graded manner up to a maximum of 250 grams. The endpoint was taken as the weight at which the paw was completely withdrawn. PWT was determined once for each rat at each time point, wherein the affected (ipsilateral; same side as the injury) rear paw was tested. […] All drug treatment groups were compared to the vehicle control group (i.e. injured, administered only the vehicle).

[2] = system: male Sprague-Dawley rats; assay: Plantar test, thermal hyperalgesia (PWL) in thermal burn pain model; details: rat burn injury 50° C. 48 s, 30 mg/kg PO
Procedure: as §1, §2
The plantar test was used to assess thermal hyperalgesia. For this test, hind paw withdrawal latencies (PWL) to a noxious thermal stimulus were determined using a plantar test apparatus (commercially available from Ugo Basile of Italy) following the technique described by K. Hargreaves et al., “A New and Sensitive Method for Measuring Thermal Nociception in Cutaneous Hyperalgesia,” Pain 32(1):77-88 (1988). The maximum exposure time was set at 32 seconds to avoid tissue damage and any directed paw withdrawal from the heat source is taken as the end point. Three latencies were determined at each time point and averaged.

[3] = system: male Sprague-Dawley rats; assay: Hind limb weight bearing (incapacitance meter, % WL) in thermal burn pain model; details: rat burn injury 55° C. 24 s, 30 mg/kg PO, 30 mg/kg
Procedure: as §1, §2
A commercially available incapacitance meter was used to determine the weight distribution on the two hind paws of the animal (Linton Incapacitance Tester (Linton Instrumentation, Norfolk, UK)). The weight bearing difference (WBD) between the injured and non-injured hindpaw was measured. The animal was placed in the testing chamber that allows the animal to stand normally, distributing its body weight on the hind limbs for the test. Each hind paw was positioned on a separate pressure sensitive pad, which independently measures the pressure applied by each limb. The device continuously collects data after either a force threshold has been exceeded, or the investigator depresses the start pad. Rats were allowed to acclimate when placed on the apparatus, and when they were stationary, the force exerted was then continuously monitored for 3 s. The endpoint was the amount of pressure applied to each limb over time. Three readings were taken for each rat at each time point, and the average used for data analysis. WBD was expressed as “% WL”, i.e. the percentage of weight borne on the burn-injured left hind paw, using the following formula: […]
where WLP is the weight on the left hind paw and WRP is the weight on the right (untreated) hind paw. The 50% value of % WL corresponds to an equal weight distribution across both hind paws. […]

[4] = baseline (prior to drug administration)

COc1ccc2c(c1)c(CC(=O)O)c(C)n2C(=O)c1ccc(Cl)cc1 [Indomethacin, indomethacin]
% Decrease from Baseline (mean ± S.E.M.) of Paw Withdrawal Threshold ([1]; 1 h after administration): 51 ± 2.6 %
% Decrease from Baseline (mean ± S.E.M.) of Paw Withdrawal Threshold ([1]; 3 h after administration): 45 ± 5.8 %
% Decrease from Baseline (mean ± S.E.M.) of Paw Withdrawal Threshold ([1]; 5 h after administration): 58 ± 3.6%
Paw Withdrawal Threshold (g) (mean ± S.E.M.) ([1]; 5 h after administration): 103 ± 10.2 g
Paw Withdrawal Threshold (g) (mean ± S.E.M.) [1, 4]: 240 ± 7.5 g
% Change from Baseline (mean ± S.E.M.) of Paw Withdrawal Latency ([2]; 1 h after administration): −41.5 ± 10.71%
Paw Withdrawal Latency (sec) (mean ± S.E.M.) ([2]; 1 h after administration): 8.3 ± 0.91 s
% Change from Baseline (mean ± S.E.M.) of Paw Withdrawal Latency ([2]; 3 h after administration): −26.1 ± 13.18%
Paw Withdrawal Latency (sec) (mean ± S.E.M.) ([2]; 3 h after administration): 11.2 ± 0.87 s
% Change from Baseline (mean ± S.E.M.) of Paw Withdrawal Latency ([2]; 5 h after administration): −25.5 ± 13.63%
Paw Withdrawal Latency (sec) (mean ± S.E.M.) ([2]; 5 h after administration): 11.4 ± 0.51 s
Paw Withdrawal Latency (sec) (mean ± S.E.M.) [2, 4]: 14.3 ± 1.26 s
% WL (mean ± S.E.M.), percentage of weight borne on the burn-injured left hind paw ([3]; 3 h after administration): 42.6 ± 2.14% and 46.8 ± 2.17%
% WL (mean ± S.E.M.), percentage of weight borne on the burn-injured left hind paw ([3]; 5 h after administration): 43.7 ± 2.38% and 48.2 ± 2.54%
% WL (mean ± S.E.M.), percentage of weight borne on the burn-injured left hind paw [3, 4]: 49.1 ± 0.53% and 50.4 ± 0.54%
